Test results as given in patent US20150094474A1, “AGRICULTURAL CHEMICALS” (Redx Pharma Ltd., priority 2012, published 2015).

Legend:
barley = experiment: Herbicidal bioassay, barley (% necrosis); format: in vivo
Summary of the method: (§1)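 Lolium perenne, barley, peas and Chinese cabbage at 2-4 true leaf stage sprayed simultaneously with a Potter tower, compounds in DMSO at six concentrations (0.05% to 0.0001%). Phytotoxicity scored as % necrosis per EPPO PP1/135 at set intervals; five replicates per treatment and species; DMSO and water controls.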

peas = experiment: Herbicidal bioassay, peas (% necrosis); format: in vivo
Summary of the method: as §1

Compound: CC(/C=N/O)Oc1ccc(Oc2ccc(C(F)(F)F)cn2)cc1 (stereo not drawn) [Compound 64, (1E)-2-[4-[[5-(Trifluoromethyl)-2-pyridyl]oxy]phenoxy]propanal oxime]
- Sum of % necrosis in barley (barley; Dose 0.000001, Day 0): C (less than 50% necrosis)
- Sum of % necrosis in barley (barley; Dose 0.000001, Day 1): C (less than 50% necrosis)
- Sum of % necrosis in barley (barley; Dose 0.000001, Day 3): C (less than 50% necrosis)
- Sum of % necrosis in barley (barley; Dose 0.000001, Day 7): C (less than 50% necrosis)
- Sum of % necrosis in barley (barley; Dose 0.000001, Day 10): C (less than 50% necrosis)
- Sum of % necrosis in barley (barley; Dose 0.000001, Day 14): C (less than 50% necrosis)
- Sum of % necrosis in barley (barley; Dose 0.000001, Day 21): C (less than 50% necrosis)
- Sum of % necrosis in barley (barley; Dose 0.000005, Day 0): C (less than 50% necrosis)
- Sum of % necrosis in barley (barley; Dose 0.000005, Day 1): C (less than 50% necrosis)
- Sum of % necrosis in barley (barley; Dose 0.000005, Day 3): C (less than 50% necrosis)
- Sum of % necrosis in barley (barley; Dose 0.000005, Day 7): C (less than 50% necrosis)
- Sum of % necrosis in barley (barley; Dose 0.000005, Day 10): C (less than 50% necrosis)
- Sum of % necrosis in barley (barley; Dose 0.000005, Day 14): C (less than 50% necrosis)
- Sum of % necrosis in barley (barley; Dose 0.000005, Day 21): C (less than 50% necrosis)
- Sum of % necrosis in barley (barley; Dose 0.00001, Day 0): C (less than 50% necrosis)
- Sum of % necrosis in barley (barley; Dose 0.00001, Day 1): C (less than 50% necrosis)
- Sum of % necrosis in barley (barley; Dose 0.00001, Day 3): C (less than 50% necrosis)
- Sum of % necrosis in barley (barley; Dose 0.00001, Day 7): C (less than 50% necrosis)
- Sum of % necrosis in barley (barley; Dose 0.00001, Day 10): C (less than 50% necrosis)
- Sum of % necrosis in barley (barley; Dose 0.00001, Day 14): C (less than 50% necrosis)
- Sum of % necrosis in barley (barley; Dose 0.00001, Day 21): C (less than 50% necrosis)
- Sum of % necrosis in barley (barley; Dose 0.00005, Day 0): C (less than 50% necrosis)
- Sum of % necrosis in barley (barley; Dose 0.00005, Day 1): C (less than 50% necrosis)
- Sum of % necrosis in barley (barley; Dose 0.00005, Day 3): C (less than 50% necrosis)
- Sum of % necrosis in barley (barley; Dose 0.00005, Day 7): C (less than 50% necrosis)
- Sum of % necrosis in barley (barley; Dose 0.00005, Day 10): C (less than 50% necrosis)
- Sum of % necrosis in barley (barley; Dose 0.00005, Day 14): C (less than 50% necrosis)
- Sum of % necrosis in barley (barley; Dose 0.00005, Day 21): C (less than 50% necrosis)
- Sum of % necrosis in barley (barley; Dose 0.0001, Day 0): C (less than 50% necrosis)
- Sum of % necrosis in barley (barley; Dose 0.0001, Day 1): C (less than 50% necrosis)
- Sum of % necrosis in barley (barley; Dose 0.0001, Day 3): C (less than 50% necrosis)
- Sum of % necrosis in barley (barley; Dose 0.0001, Day 7): C (less than 50% necrosis)
- Sum of % necrosis in barley (barley; Dose 0.0001, Day 10): C (less than 50% necrosis)
- Sum of % necrosis in barley (barley; Dose 0.0001, Day 14): C (less than 50% necrosis)
- Sum of % necrosis in barley (barley; Dose 0.0001, Day 21): C (less than 50% necrosis)
- Sum of % necrosis in barley (barley; Dose 0.0005, Day 0): C (less than 50% necrosis)
- Sum of % necrosis in barley (barley; Dose 0.0005, Day 1): C (less than 50% necrosis)
- Sum of % necrosis in barley (barley; Dose 0.0005, Day 3): C (less than 50% necrosis)
- Sum of % necrosis in barley (barley; Dose 0.0005, Day 7): C (less than 50% necrosis)
- Sum of % necrosis in barley (barley; Dose 0.0005, Day 10): B (50%-80% necrosis)
- Sum of % necrosis in barley (barley; Dose 0.0005, Day 14): B (50%-80% necrosis)
- Sum of % necrosis in barley (barley; Dose 0.0005, Day 21): B (50%-80% necrosis)
- Sum of % necrosis in Peas (peas; Dose 0.000001, Day 0): C (less than 50% necrosis)
- Sum of % necrosis in Peas (peas; Dose 0.000001, Day 1): C (less than 50% necrosis)
- Sum of % necrosis in Peas (peas; Dose 0.000001, Day 3): C (less than 50% necrosis)
- Sum of % necrosis in Peas (peas; Dose 0.000001, Day 7): C (less than 50% necrosis)
- Sum of % necrosis in Peas (peas; Dose 0.000001, Day 10): C (less than 50% necrosis)
- Sum of % necrosis in Peas (peas; Dose 0.000001, Day 14): C (less than 50% necrosis)
- Sum of % necrosis in Peas (peas; Dose 0.000001, Day 21): B (50%-80% necrosis)
- Sum of % necrosis in Peas (peas; Dose 0.000005, Day 0): C (less than 50% necrosis)
- Sum of % necrosis in Peas (peas; Dose 0.000005, Day 1): C (less than 50% necrosis)
- Sum of % necrosis in Peas (peas; Dose 0.000005, Day 3): C (less than 50% necrosis)
- Sum of % necrosis in Peas (peas; Dose 0.000005, Day 7): C (less than 50% necrosis)
- Sum of % necrosis in Peas (peas; Dose 0.000005, Day 10): C (less than 50% necrosis)
- Sum of % necrosis in Peas (peas; Dose 0.000005, Day 14): C (less than 50% necrosis)
- Sum of % necrosis in Peas (peas; Dose 0.000005, Day 21): C (less than 50% necrosis)
- Sum of % necrosis in Peas (peas; Dose 0.00001, Day 0): C (less than 50% necrosis)
- Sum of % necrosis in Peas (peas; Dose 0.00001, Day 1): C (less than 50% necrosis)
- Sum of % necrosis in Peas (peas; Dose 0.00001, Day 3): C (less than 50% necrosis)
- Sum of % necrosis in Peas (peas; Dose 0.00001, Day 7): C (less than 50% necrosis)
- Sum of % necrosis in Peas (peas; Dose 0.00001, Day 10): C (less than 50% necrosis)
- Sum of % necrosis in Peas (peas; Dose 0.00001, Day 14): B (50%-80% necrosis)
- Sum of % necrosis in Peas (peas; Dose 0.00001, Day 21): A (over 80% necrosis)
- Sum of % necrosis in Peas (peas; Dose 0.00005, Day 0): C (less than 50% necrosis)
- Sum of % necrosis in Peas (peas; Dose 0.00005, Day 1): C (less than 50% necrosis)
- Sum of % necrosis in Peas (peas; Dose 0.00005, Day 3): C (less than 50% necrosis)
- Sum of % necrosis in Peas (peas; Dose 0.00005, Day 7): C (less than 50% necrosis)
- Sum of % necrosis in Peas (peas; Dose 0.00005, Day 10): C (less than 50% necrosis)
- Sum of % necrosis in Peas (peas; Dose 0.00005, Day 14): C (less than 50% necrosis)
- Sum of % necrosis in Peas (peas; Dose 0.00005, Day 21): C (less than 50% necrosis)
- Sum of % necrosis in Peas (peas; Dose 0.0001, Day 0): C (less than 50% necrosis)
- Sum of % necrosis in Peas (peas; Dose 0.0001, Day 1): C (less than 50% necrosis)
- Sum of % necrosis in Peas (peas; Dose 0.0001, Day 3): C (less than 50% necrosis)
- Sum of % necrosis in Peas (peas; Dose 0.0001, Day 7): C (less than 50% necrosis)
- Sum of % necrosis in Peas (peas; Dose 0.0001, Day 10): C (less than 50% necrosis)
- Sum of % necrosis in Peas (peas; Dose 0.0001, Day 14): B (50%-80% necrosis)
- Sum of % necrosis in Peas (peas; Dose 0.0001, Day 21): A (over 80% necrosis)
- Sum of % necrosis in Peas (peas; Dose 0.0005, Day 0): C (less than 50% necrosis)
- Sum of % necrosis in Peas (peas; Dose 0.0005, Day 1): C (less than 50% necrosis)
- Sum of % necrosis in Peas (peas; Dose 0.0005, Day 3): C (less than 50% necrosis)
- Sum of % necrosis in Peas (peas; Dose 0.0005, Day 7): C (less than 50% necrosis)
- Sum of % necrosis in Peas (peas; Dose 0.0005, Day 10): C (less than 50% necrosis)
- Sum of % necrosis in Peas (peas; Dose 0.0005, Day 14): C (less than 50% necrosis)
- Sum of % necrosis in Peas (peas; Dose 0.0005, Day 21): A (over 80% necrosis)
